For data set [1], the target named is T1, human β1-adrenergic receptor (Homo sapiens, UniProt P08588).
T1 construct: expressed in transfected cells; host or cells: CHO cells
As to the kind of experiment: cAMP accumulation (SPA) in CHO cells transfected with human β1 adrenergic receptor. The format is cell-based. As to conditions: for pEC50: CHO cells transfected with human β1-AR, cAMP, 15 min incubation, 10^−8 to 10^−4 M, read-out: beta-1 EC50; for beta-1 (IA) maximal response relative to isoproterenol: IA = % activity compound / % activity isoproterenol at 10^−5 M, CHO human β1 cells. The gist of the method:
(§1)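 CHO cell clones expressing 70–110 fmol/mg protein of receptor were pre-incubated 30 min at 37 °C, then treated 15 min at 37 °C with compound (10^−8 to 10^−4 M) in DMEM with 250 μM IBMX and 1 mM ascorbic acid. cAMP was read by SPA after acid stop. EC50 and IA were expressed relative to maximal 10^−5 M isoproterenol response.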

Data set [2] deals with T2, human β3 adrenergic receptor (Homo sapiens, UniProt P13945).
T2 construct: Full length β3 AR clones (402 amino acids) containing the last 6 amino acids of hβ3— AR are prepared; expressed in transfected cells; host or cells: CHO cells
As to the kind of experiment: cAMP accumulation (SPA) in CHO cells transfected with human β3 adrenergic receptor. The format is cell-based. Particulars: for pEC50: CHO cells expressing human β3-AR, cAMP, 30 min incubation, 10^−9 M to 10^−5 M, read-out: beta-3 EC50; for beta-3 (IA) maximal response relative to isoproterenol: IA = % activity compound / % activity isoproterenol at 10^−5 M, CHO human β3 cells. Summed up:
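CHO cells expressing human β3-AR (70–110 fmol/mg protein) treated with compound at 10^−9 to 10^−5 M in DMEM with 250 μM IBMX and 1 mM ascorbic acid, 30 min, 37 °C. cAMP measured by SPA; EC50 derived, and intrinsic activity expressed relative to the maximal response of 10^−5 M isoproterenol.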
(In general: Cyclic AMP is a second messenger, typically raised through Gs and lowered through Gi signalling.)

The target of data set [3] is T3, human β2-adrenergic receptor (Homo sapiens, UniProt P07550).
T3 construct: expressed in transfected cells; host or cells: CHO cells
Put plainly: cAMP accumulation (SPA) in CHO cells transfected with human β2 adrenergic receptor. The format is cell-based. As to conditions: for pEC50: CHO cells transfected with human β2-AR, cAMP, 15 min incubation, 10^−8 to 10^−4 M, read-out: beta-2 EC50; for beta-2 (IA) maximal response relative to isoproterenol: IA = % activity compound / % activity isoproterenol at 10^−5 M, CHO human β2 cells. Summed up: as §1

pEC50: −log10 of the molar value.

T3 sequence (P07550 whole entry): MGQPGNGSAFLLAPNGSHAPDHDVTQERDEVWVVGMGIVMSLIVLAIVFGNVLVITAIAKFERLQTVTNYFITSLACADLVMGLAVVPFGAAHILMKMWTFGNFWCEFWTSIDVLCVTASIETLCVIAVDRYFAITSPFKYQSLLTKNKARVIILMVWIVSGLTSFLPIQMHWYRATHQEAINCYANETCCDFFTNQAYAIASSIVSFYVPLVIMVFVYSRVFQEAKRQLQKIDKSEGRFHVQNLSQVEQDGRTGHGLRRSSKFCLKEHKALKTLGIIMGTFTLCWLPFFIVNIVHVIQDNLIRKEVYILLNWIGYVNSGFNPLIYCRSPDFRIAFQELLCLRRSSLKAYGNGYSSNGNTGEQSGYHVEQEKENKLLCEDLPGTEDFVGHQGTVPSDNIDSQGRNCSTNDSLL
T2 sequence (P13945 whole entry): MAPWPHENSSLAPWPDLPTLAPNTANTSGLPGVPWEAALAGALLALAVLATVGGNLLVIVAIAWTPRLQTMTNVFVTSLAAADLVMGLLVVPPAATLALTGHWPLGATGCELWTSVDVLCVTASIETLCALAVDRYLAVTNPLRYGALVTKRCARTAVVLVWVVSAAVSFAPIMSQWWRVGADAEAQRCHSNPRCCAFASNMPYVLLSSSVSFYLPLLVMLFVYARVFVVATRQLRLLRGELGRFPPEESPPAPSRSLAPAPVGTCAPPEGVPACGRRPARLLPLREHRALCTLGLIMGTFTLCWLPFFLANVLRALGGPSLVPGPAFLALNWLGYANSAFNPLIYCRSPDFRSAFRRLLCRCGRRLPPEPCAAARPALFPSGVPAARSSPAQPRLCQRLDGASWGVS
T1 sequence (P08588 whole entry): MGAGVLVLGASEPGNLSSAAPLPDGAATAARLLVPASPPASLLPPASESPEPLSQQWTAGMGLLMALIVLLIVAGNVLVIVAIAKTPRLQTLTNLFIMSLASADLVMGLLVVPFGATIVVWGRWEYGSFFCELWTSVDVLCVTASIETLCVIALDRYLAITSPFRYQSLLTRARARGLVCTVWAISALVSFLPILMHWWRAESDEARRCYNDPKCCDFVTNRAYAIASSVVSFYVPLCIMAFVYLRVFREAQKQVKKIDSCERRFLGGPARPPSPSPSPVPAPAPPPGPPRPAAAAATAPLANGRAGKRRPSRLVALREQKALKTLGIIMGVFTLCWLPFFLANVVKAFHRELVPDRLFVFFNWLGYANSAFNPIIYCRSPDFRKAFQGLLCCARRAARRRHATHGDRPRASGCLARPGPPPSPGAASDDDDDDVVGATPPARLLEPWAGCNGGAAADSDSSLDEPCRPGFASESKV

Consider `COc1ccc(NS(=O)(=O)c2ccc(N3CCC(NCC(O)c4ccc(O)c(NS(C)(=O)=O)c4)CC3)cc2)cc1OC` (stereo not shown) [Example 8, N-(3,4-Dimethoxy-phenyl)-4-{4-[2-hydroxy-2-(4-hydroxy-3-methanesulfonylamino-phenyl)-ethylamino]-piperidin-1-yl}-benzenesulfonamide], for which the melting point – broadly, the temperature of the solid-liquid transition – lay within 205 to 218 °C. In data set [1], the pEC50 (as a rule, −log10 of the EC50, conventionally taken in molar units) was 5.44 and the “beta-1 (IA) maximal response relative to isoproterenol” value is on record as “(0.41)”. Besides, in data set [2], the pEC50 was 7.80 and the “beta-3 (IA) maximal response relative to isoproterenol” value is on record as “(0.91)”. Further, in data set [3], the pEC50 is 6.21 and the “beta-2 (IA) maximal response relative to isoproterenol” value was “(0.28)”.

`CC#CCC(CC#CC)(C(=O)O)S(=O)(=O)c1ccc(N2CCC(NC[C@H](O)c3ccc(O)c(NS(C)(=O)=O)c3)CC2)cc1` [Example 48, 2-(2-Butynyl)-2-[(4-{4-[((2R)-2-hydroxy-2-{4-hydroxy-3-[(methylsulfonyl)amino]phenyl}ethyl)amino]-1-piperidinyl}phenyl)sulfonyl]-4-hexynoicacid]: the melting point is 175 to 177 °C. For the same compound, in data set [1], the pEC50 was 5.00 and the “beta-1 (IA) maximal response relative to isoproterenol” value was “(0.26)”. Also, in data set [2], the pEC50 was 6.23 and the “beta-3 (IA) maximal response relative to isoproterenol” value is “(1)”. In data set [3], the pEC50 is 5.00 and the “beta-2 (IA) maximal response relative to isoproterenol” value was “(0.54)”.

`CC#CCC(CC#CC)(C(=O)OC(C)(C)C)S(=O)(=O)c1ccc(N2CCC(NC[C@H](O)c3ccc(O)c(NS(C)(=O)=O)c3)CC2)cc1` [Example 47, 2-(2-Butynyl)-2-[(4-{4-[((2R)-2-hydroxy-2-{4-hydroxy-3-[(methylsulfonyl)amino]-phenyl}ethyl)amino]-1-piperidinyl}phenyl)sulfonyl]-4-hexynoicacid tert-Butyl Ester] yielded a melting point of 93 to 95 °C. In data set [1], the pEC50 is 6.00 and the “beta-1 (IA) maximal response relative to isoproterenol” value is recorded as “(0.47)”. Further, in data set [2], the pEC50 was 8.22 and the “beta-3 (IA) maximal response relative to isoproterenol” value is reported as “(0.93)”. Moreover, in data set [3], the pEC50 was 5.49 and the “beta-2 (IA) maximal response relative to isoproterenol” value was “(0.46)”.

`COC(=O)N(CC(=O)OC(C)(C)C)S(=O)(=O)c1ccc(N2CCC(NC[C@H](O)c3ccc(O)c(NS(C)(=O)=O)c3)CC2)cc1` [Example 59, tert-Butyl [[(4-{4-[((2R)-2-Hydroxy-2-{4-hydroxy-3-[(methylsulfonyl)amino]-phenyl}ethyl)amino]piperidin-1-yl}phenyl)sulfonyl](methoxycarbonyl)-amino]acetate] displayed a melting point of 110 to 115 °C. In data set [1], the pEC50 was 5.11 and the “beta-1 (IA) maximal response relative to isoproterenol” value was “(0.52)”. In data set [2], the pEC50 was 7.82 and the “beta-3 (IA) maximal response relative to isoproterenol” value is listed as “(0.98)”. Also, in data set [3], the pEC50 is 4.92 and the “beta-2 (IA) maximal response relative to isoproterenol” value is given as “(0.2)”.

Consider `CS(=O)(=O)Nc1cc([C@@H](O)CNC2CCN(c3ccc(S(=O)(=O)NCCO)cc3)CC2)ccc1O` [Example 24, N-(2-Hydroxyethyl)-4-{4-[(2R)-2-hydroxy-2-(4-hydroxy-3-methanesulfonylamino-phenyl)-ethylamino]-piperidin-1-yl)-benzenesulfonamide], for which the melting point fell in the range of 78 to 81 °C. Further, in data set [1], the pEC50 is 6.00 and the “beta-1 (IA) maximal response relative to isoproterenol” value was “(0.35)”. Also, in data set [2], the pEC50 is 7.48 and the “beta-3 (IA) maximal response relative to isoproterenol” value was “(0.88)”. Moreover, in data set [3], the pEC50 was 6.00 and the “beta-2 (IA) maximal response relative to isoproterenol” value was “(0.68)”.

Compound `CC(C)(C)OC(=O)CN(CC(=O)OC(C)(C)C)S(=O)(=O)c1ccc(N2CCC(NC[C@H](O)c3ccc(O)c(NS(C)(=O)=O)c3)CC2)cc1` [Example 54, tert-Butyl 2-{[2-(tert-butoxy)-2-oxoethyl][(4-{4-[((2R)-2-hydroxy-2-{4-hydroxy-3-[(methylsulfonyl)amino]phenyl}ethyl)amino]-1-piperidinyl}-phenyl)sulfonyl]amino}acetate] had a melting point of 164 to 166 °C. Also, in data set [1], the pEC50 was 5.64 and the “beta-1 (IA) maximal response relative to isoproterenol” value is listed as “(0.33)”. In addition, in data set [2], the pEC50 was 7.85 and the “beta-3 (IA) maximal response relative to isoproterenol” value is listed as “(1.2)”. Besides, in data set [3], the pEC50 is 4.92 and the “beta-2 (IA) maximal response relative to isoproterenol” value is on record as “(0.42)”.

The compound `CCCCN(CC(=O)OCc1ccccc1)S(=O)(=O)c1ccc(N2CCC(NC[C@H](O)c3ccc(O)c(NS(C)(=O)=O)c3)CC2)cc1` [Example 19, [Butyl-(4-{4-[(2R)-2-hydroxy-2-(4-hydroxy-3-methanesulfonylamino-phenyl)-ethylamino]-piperidin-1-yl}-benzenesulfonyl)-amino]-acetic Acid Benzyl Ester] gave a melting point of 59 to 64 °C. Moreover, in data set [1], the pEC50 was 6.10 and the “beta-1 (IA) maximal response relative to isoproterenol” value is “(0.54)”. Further, in data set [2], the pEC50 was 8.15 and the “beta-3 (IA) maximal response relative to isoproterenol” value is on record as “(1)”. The “beta-2 (IA) maximal response relative to isoproterenol” value in data set [3] is recorded as “(0.2)”.

On to `CC(C)OC(=O)C1CCCN1S(=O)(=O)c1ccc(N2CCC(NCC(O)c3ccc(O)c(NS(C)(=O)=O)c3)CC2)cc1` (stereo not shown) [Example 15, 1-(4-{4-[2-Hydroxy-2-(4-hydroxy-3-methanesulfonylamino-phenyl)-ethylamino]-piperidin-1-yl}-benzenesulfonyl)-pyrrolidine-2-carboxylic Acid Isopropyl Ester], for which the melting point lay within 52 to 58 °C. Further, in data set [1], the pEC50 is 4.89 and the “beta-1 (IA) maximal response relative to isoproterenol” value is given as “(0.23)”. Besides, in data set [2], the pEC50 is 9.00 and the “beta-3 (IA) maximal response relative to isoproterenol” value is “(1)”. For the same compound, in data set [3], the pEC50 is 6.80 and the “beta-2 (IA) maximal response relative to isoproterenol” value is “(0.37)”.

The values are drawn from patent US6444685B1, “N-(4-sulfonylaryl)Cyclylamine 2-hydroxyethylamines as beta-3 adrenergic receptor agonists” (Wyeth, priority 2000, dated 2002).
